The values below come from PubChem BioAssay AID2005 (Sanford-Burnham Center for Chemical Genomics, 2009).

Calls of active or inactive are those of the source.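 How the source made its calls: active means plate Z score at or below -3, or inhibition of at least 30% at 20 µM; inactive means the rest.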

Test [1] is described as follows: EGFP reporter destabilization counter-screen – F442A EGFP cells, fluorescence, counter-screen for p/CIP destabilizer project, dose response (AID 2005).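 Further: cells express EGFP alone from a CMV promoter as a counter screen for p/CIP-EGFP.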 The following applies: F442A EGFP cells, EGFP fluorescence, 16 h, stronger effect = higher value.
In test [2] the test system is F442A EGFP cells, EGFP fluorescence, 16 h. The description is as above.

On to `CCOC(=O)c1c(C)[nH]c2c1-c1ccccc1C(=O)C2=O`, for which the inhibition in test [1] (EGFP decrease, at 10 µM) is 23.3%. For the same compound, in test [2], the half-inhibitory concentration (IC50) is 8.64 µM.

Take `CCOC(=O)N=Nc1c2ccccc2c2nc3no[nH]c3nc12`: in test [1] (EGFP decrease, at 10 µM), the inhibition is -20.6%. In test [2], the IC50 was 35.5 µM.

As for `O=C1C(Nc2ccc(O)cc2)=C/C(=N/S(=O)(=O)c2cccs2)c2ccccc21`, the inhibition in test [1] (EGFP decrease, at 10 µM) turned out to be 66%. In addition, the IC50 in test [2] is 5.18 µM.

With `COc1ccc(NC(=O)/C(Cl)=C(/Cl)S(=O)Cc2ccc(Cl)cc2)cn1` (stereo not given), the inhibition in test [1] (EGFP decrease, at 10 µM) was -168%. For the same compound, in test [2], the IC50 was 49.9 µM (inactive).

For `Cc1ccc(NC2=C/C(=N\S(=O)(=O)c3cccs3)c3ccccc3C2=O)c(C)c1`, the inhibition in test [1] (EGFP decrease, at 10 µM) stood at 60%. In addition, the concentration for half-maximal inhibition (IC50) in test [2] is 16 µM.

As to `COc1ccc(CS(=O)/C(Cl)=C(/Cl)C(=O)Nc2ccc(OC)nc2)cc1` (stereo not given), the inhibition in test [1] (EGFP decrease, at 10 µM) was -232%. In test [2], the IC50 was 48 µM (inactive).

Take `O=C1C(Cl)=C(NCCN2CCCCC2)C(=O)c2ccccc21`: the inhibition in test [1] (EGFP decrease, at 10 µM) amounted to 16.1%. In test [2], the IC50 is 20.4 µM.

Turning to `CC(C)(C)c1cc[n+](C2=C([O-])c3ccccc3C(=O)/C2=N\S(=O)(=O)c2cccs2)cc1`, the inhibition in test [1] (EGFP decrease, at 10 µM) is -4.5%. In addition, in test [2], the IC50 was 37.9 µM.

Consider `O=C1C(Nc2ccccc2)=C/C(=N/S(=O)(=O)c2cccs2)c2ccccc21`, for which the inhibition in test [1] (EGFP decrease, at 10 µM) came to 62.1%. In addition, the IC50 in test [2] is 10.4 µM.

Take `Nc1ccc2c(c1)C(=O)C(=O)c1ccccc1-2`: in test [1] (EGFP decrease, at 10 µM), the inhibition amounted to 3.5%. In addition, the IC50 in test [2] was 30.8 µM.

For the compound `Cc1oc2c(c1C(=O)NCc1cccnc1)C(=O)c1ccccc1C2=O`, the inhibition in test [1] (EGFP decrease, at 10 µM) was 72%. In addition, the IC50 in test [2] is 5.99 µM.

For the compound `CC1CCN(S(=O)(=O)c2ccc3c(c2)C(=NO)c2cc(S(=O)(=O)N4CCC(C)CC4)ccc2-3)CC1`, in test [1] (EGFP decrease, at 10 µM), the inhibition was 68.9%. The half-inhibitory concentration (IC50) in test [2] is 7.46 µM.

Consider `Cc1ccccc1NC1=C/C(=N\S(=O)(=O)c2cccs2)c2ccccc2C1=O`, for which the inhibition in test [1] (EGFP decrease, at 10 µM) came out at 66.7%. For the same compound, the IC50 in test [2] is 13 µM.

In the case of `CCCCS(=O)(=O)Nc1ccc2c(c1)ncn2C1CCCCC1`, the inhibition in test [1] (EGFP decrease, at 10 µM) is 27.7%; in test [1] (at 20 µM) it was 13.8% (inactive).

On to `COc1cccc2cc(C(C)=O)c(=O)oc12`, for which the inhibition in test [1] (EGFP decrease, at 10 µM) is 33.2%; in test [1] (at 20 µM) it was 24.2% (inactive).

Consider `O=C(CCCOc1ccccc1)Nc1nncs1`, for which the inhibition was -15.9% in test [1] (EGFP decrease, at 10 µM) and 22.7% (inactive) in test [1] (at 20 µM).

In the case of `Cn1c(NCc2ccco2)nc2c1c(=O)n(Cc1ccc(Cl)cc1)c(=O)n2C`, the inhibition was 17.1% in test [1] (EGFP decrease, at 10 µM) and 20.5% (inactive) in test [1] (at 20 µM).

Take `CCN1C(=O)/C(=C2\C=Cc3cc(C)ccc3N2CC)OC1=S`: the inhibition was -35.7% in test [1] (EGFP decrease, at 10 µM) and -30.8% (inactive) in test [1] (at 20 µM).

As for `COC(=O)c1sc(NC(=O)CSc2nnnn2-c2cccc(OC)c2)nc1C`, the inhibition in test [1] (EGFP decrease, at 10 µM) was 34.2%; in test [1] (at 20 µM), 13.2% (inactive).

`O=c1c2ccccc2nc(-c2ccccc2)n1-c1ccncc1`: the inhibition in test [1] (EGFP decrease, at 10 µM) is -29.4%; in test [1] (at 20 µM), 24.7% (inactive).

In the case of `Cn1cc(/C=C(\C(=O)O)C(C(=O)O)=C2CCCCC2)c2ccccc21`, the inhibition in test [1] (EGFP decrease, at 10 µM) is 13.9%; in test [1] (at 20 µM) it was 17.2% (inactive).

`COc1cccc(NC(=O)N2CCC(NC(=O)C3CCCCC3)CC2)c1`: the inhibition in test [1] (EGFP decrease, at 10 µM) is 13.5%; in test [1] (at 20 µM), 8% (inactive).

For `Cc1cc(C(=O)Nc2cccc(C)c2C)n(-c2ccccc2)n1`, the inhibition is -4.4% in test [1] (EGFP decrease, at 10 µM) and 5.5% (inactive) in test [1] (at 20 µM).

As for `CN(Cc1ccco1)C(=O)C1CCC(=O)N(CCc2cccc(F)c2)C1` (stereo not given), the inhibition was 5.1% in test [1] (EGFP decrease, at 10 µM) and 1.2% (inactive) in test [1] (at 20 µM).

As to `O=C(Oc1ccccc1-c1nnco1)c1ccccc1`, the inhibition is 31% in test [1] (EGFP decrease, at 10 µM) and -29.2% (inactive) in test [1] (at 20 µM).

The term inhibition denotes the change of the read-out against control, counted positive when it falls. By IC50 is commonly meant the point on the concentration scale where inhibition reaches its midpoint.
